# Source: US12209086B2, “FGFR3 inhibitor compounds” (ELI LILLY AND COMPANY, priority 2021, dated 2025)
# Target: T1, FGFR3 protein (Homo sapiens, UniProt P22607)
# T1 construct: purchased Reaction Biology 1068
# Assay: FGFR3 enzyme assay (KinEASE-TK HTRF kinase assay)
# Format: biochemical
# Conditions: 0.25 nM enzyme, ATP at Km, 15 min pre-incubation on ice, 30 min at 30° C.
# Procedure: FGFR3 and FGFR1 Enzyme Assay
# Enzyme activity was monitored using the KinEASE™-TK Assay Kit (Cisflio, Cat. No. 62TK0PEC) according to the manufacturer's instructions. All assays were performed at the respective KmATP for each kinase in KinEASE™ Kinase Buffer.
# Titration of compounds were performed in a half-log manner in 100% dimethyl sulfoxide (DMSO) starting at 1 uM. Prior to the initiation of the reaction by adenosine triphosphate (ATP), FGFR1 protein and compounds were pre-incubated for 15 minutes at room temperature, and FGFR3 protein and compounds were pre-incubated on ice for 15 minutes. Reactions proceeded for 30 min at 30° C. Plates were quenched by the addition of the Anti-TK cryptate antibody/Streptavidin-XL665 mixture.
# Ratios were converted to a percent of control (POC) using a ratiometric emission factor. One hundred POC was determined using no test compound, and 0 POC was determined in the presence of 1 uM of an appropriate control inhibitor.
# T1 sequence (P22607 23-806): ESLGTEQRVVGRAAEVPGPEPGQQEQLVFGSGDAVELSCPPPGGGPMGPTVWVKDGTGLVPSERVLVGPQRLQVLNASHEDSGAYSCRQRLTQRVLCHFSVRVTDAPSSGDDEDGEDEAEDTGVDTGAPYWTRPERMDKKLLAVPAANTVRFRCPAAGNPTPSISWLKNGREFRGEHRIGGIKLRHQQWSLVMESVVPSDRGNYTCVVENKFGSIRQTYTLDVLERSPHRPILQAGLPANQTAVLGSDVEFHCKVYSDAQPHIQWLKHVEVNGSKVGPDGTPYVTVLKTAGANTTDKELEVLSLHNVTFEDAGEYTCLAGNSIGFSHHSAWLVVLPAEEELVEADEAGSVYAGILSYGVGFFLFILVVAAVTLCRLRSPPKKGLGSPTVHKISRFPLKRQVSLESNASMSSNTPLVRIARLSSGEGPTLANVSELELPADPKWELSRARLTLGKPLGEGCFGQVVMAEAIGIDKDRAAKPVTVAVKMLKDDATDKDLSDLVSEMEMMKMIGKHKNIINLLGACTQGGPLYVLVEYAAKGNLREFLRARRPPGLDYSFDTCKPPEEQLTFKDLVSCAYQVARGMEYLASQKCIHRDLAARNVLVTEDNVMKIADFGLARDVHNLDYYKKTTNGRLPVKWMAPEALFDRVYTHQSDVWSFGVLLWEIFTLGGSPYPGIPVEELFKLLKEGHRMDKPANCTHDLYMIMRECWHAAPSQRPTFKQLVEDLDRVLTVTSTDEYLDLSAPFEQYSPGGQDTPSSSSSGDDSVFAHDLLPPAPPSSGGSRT
row,SMILES,IC50
1,"COCC(Oc1cc(-c2nnn(C3CCN(C#N)CC3)c2C)cn2ncc(C#N)c12)c1cncc(C(F)(F)F)c1 (single isomer, unassigned; isomer 1) [Example 61, 6-[1-(1-cyano-4-piperidyl)-5-methyl-triazol-4-yl]-4-[2-methoxy-1-[5-(trifluoromethyl)-3-pyridyl]ethoxy]pyrazolo [1,5-a]pyridine-3-carbonitrile, Isomer 1]",< 50 nM
2,"Cc1c(-c2cc(O[C@H](C)c3ccccc3C#N)c3c(Cl)cnn3c2)cnn1C1CCN(C#N)CC1 [Example 297, 4-[4-[3-Chloro-4-[(1R)-1-(2-cyanophenyl)ethoxy]pyrazolo[1,5-a]pyridin-6-yl]-5-methyl-pyrazol-1-yl]piperidine-1-carbonitrile]",< 50 nM
3,"Cc1c(-c2cc(O[C@H](C)C3CCOCC3)c3c(C#N)cnn3c2)cnn1C1CCN(C#N)CC1 [Example 245, 4-(4-[3-Cyano-4-[(1R)-1-(oxan-4-yl)ethoxy]pyrazolo [1,5-a]pyridin-6-yl]-5-methylpyrazol-1-yl)piperidine-1-carbonitrile]",< 50 nM
4,"Cc1c(-c2cc(OC(C)c3cncc(C(F)(F)F)n3)n3c(C#N)cnc3c2)nnn1C1CCN(C#N)CC1 (single isomer, unassigned) [Example 99, 7-[1-(1-Cyano-4-piperidyl)-5-methyl-triazol-4-yl]-5-[1-[6-(trifluoromethyl)pyrazin-2-yl]ethoxy]imidazo [1,2-a]pyridine-3-carbonitrile]",< 50 nM
5,"COc1cc(-c2cnn(C3CN(C4CC5CC(C4)N(C#N)C5)C3)c2C)cn2ncc(C#N)c12 (centres unmarked) [Example 225, 6-(1-(1-(6-cyano-6-azabicyclo[3.2.1]octan-3-yl)azetidin-3-yl)-5-methyl-1H-pyrazol-4-yl)-4-methoxypyrazolo[1,5-a]pyridine-3-carbonitrile]",< 100 nM
6,"Cc1c(-c2cc(OC(C)c3cc(Cl)cnn3)c3c(C#N)cnn3c2)nnn1C1CCN(C#N)CC1 (single isomer, unassigned; isomer 1) [Example 68, 4-[1-(5-Chloropyridazin-3-yl)ethoxy]-6-[1-(1-cyano-4-piperidyl)-5-methyl-triazol-4-yl]pyrazolo[1,5-a]pyridine-3-carbonitrile, Isomer 1]",< 50 nM
7,"Cc1c(-c2cc(OC(CO)c3ccc(F)cn3)n3c(Cl)cnc3c2)nnn1C1CCN(C#N)CC1 (single isomer, unassigned; isomer 2) [Example 47, 4-[4-[3-Chloro-5-[1-(5-fluoro-2-pyridyl)-2-hydroxy-ethoxy]imidazo[1,2-a]pyidine-7-yl]-5-methyl-triazol-1-yl]piperidine-1-carbonitrile, Isomer 2]",< 50 nM
8,"Cc1c(-c2cc(OC(c3ccc(F)cn3)C(F)(F)F)n3c(C#N)cnc3c2)nnn1C1CCN(C#N)CC1 (single isomer, unassigned; isomer 1) [Example 48, 7-[1-(1-Cyano-4-piperidyl)-5-methyl-triazol-4-yl]-5-[2,2,2-trifluoro-1-(5-fluoro-2-pyridyl)ethoxy]imidazo[1,2-a]pyridine-3-carbonitrile, Isomer 1]",< 50 nM
9,"Cc1nc([C@@H](C)Oc2cc(-c3nnn(C4CCN(C#N)CC4)c3C)cn3ncc(C#N)c23)cs1 [Example 291, 6-[1-(1-Cyano-4-piperidyl)-5-methyl-triazol-4-yl]-4-[(1R)-1-(2-methylthiazol-4-yl)ethoxy]pyrazolo [1,5-a]pyridine-3-carbonitrile]",< 50 nM
10,"Cc1c(-c2cc(OCC(C)(O)c3ccc(F)cn3)c3c(Cl)cnn3c2)nnn1C1CCN(C#N)CC1 (single isomer, unassigned) [Example 156, 4-[4-[3-Chloro-4-[2-(5-fluoro-2-pyridyl)-2-hydroxy-propoxy]pyrazolo[1,5-a]pyridin-6-yl]-5-methyl-triazol-1-yl]piperidine-1-carbonitrile]",< 50 nM
11,"Cc1c(-c2cc(O[C@H](C)c3ccccn3)c3c(C#N)cnn3c2)nnn1C1CCN(C#N)CC1 [Example 169, 4-(4-[3-Cyano-4-[(1R)-1-(pyridin-2-yl)ethoxy]pyrazolo[1,5-a]pyridin-6-yl]-5-methyl-1,2,3-triazol-1-yl)piperidine-1-carbonitrile]",< 50 nM
12,"Cc1c(-c2cc(OC(CO)c3ccc(F)cn3)n3c(C#N)cnc3c2)nnn1C1CCN(C#N)CC1 (single isomer, unassigned; isomer 1) [Example 63, 7-[1-(1-Cyano-4-piperidyl)-5-methyl-triazol-4-yl]-5-[1-(5-fluoro-2-pyridyl)-2-hydroxy-ethoxy]imidazo[1,2-a]pyridine-3-carbonitrile, Isomer 1]",< 50 nM
13,"Cc1c(-c2cc(OC(CO)c3ccc(F)cn3)c3c(C#N)cnn3c2)cnn1C1CCN(C#N)CC1 (single isomer, unassigned; isomer 1) [Example 43, 6-[1-(1-Cyano-4-piperidyl)-5-methyl-pyrazol-4-yl]-4-[1-(5-fluoro-2-pyridyl)-2-hydroxy-ethoxy]pyrazolo[1,5-a]pyridine-3-carbonitrile, Isomer 1]",< 50 nM
14,"Cc1c(-c2cc(O[C@H](C)c3ccccn3)n3c(C#N)cnc3c2)nnn1C1CCN(C#N)CC1 [Example 201, 4-(4-[3-Cyano-5-[(1R)-1-(pyridin-2-yl)ethoxy]imidazo [1,2-a]pyridin-7-yl]-5-methyl-1,2,3-triazol-1-yl)piperidine-1-carbonitrile]",< 50 nM
15,"Cc1c(-c2cc(O[C@H](C)c3ccccn3)n3c(Cl)cnc3c2)nnn1C1CN(C2CCN(C#N)CC2)C1 [Example 233, 4-[3-[4-[3-Chloro-5-[(1R)-1-(2-pyridyl)ethoxy]imidazo[1,2-a]pyridin-7-yl]-5-methyl-triazol-1-yl]azetidin-1-yl]piperidine-1-carbonitrile]",< 100 nM
16,"Cc1c(-c2cc(OC(CO)c3ccc(F)cn3)c3c(Cl)cnn3c2)nnn1[C@H]1C[C@@H](N2CC3COCC(C2)N3C#N)C1 (single isomer, unassigned) [Example 280]",< 50 nM
17,"Cc1c(-c2cc(O[C@H](C)c3ccn(C)n3)c3c(C#N)cnn3c2)nnn1C1CCN(C#N)CC1 [Example 292, 6-[1-(1-Cyano-4-piperidyl)-5-methyl-triazol-4-yl]-4-[(1R)-1-(1-methylpyrazol-3-yl)ethoxy]pyrazolo [1,5-a]pyridine-3-carbonitrile]",< 50 nM
18,"COc1cc(-c2cnn(C3CN(C4CCN(C#N)CC4(F)F)C3)c2C)cn2ncc(C#N)c12 (single isomer, unassigned) [Example 179, 4-[3-(4-[3-Cyano-4-methoxypyrazolo[1,5-a]pyridin-6-yl]-5-methylpyrazol-1-yl)azetidin-1-yl]-3,3-difluoropiperidine-1-carbonitrile]",< 50 nM
19,"COc1cc(-c2cnn(C3CCN(C4CN(C#N)C4)CC3)c2C)cn2ncc(C#N)c12 [Example 228, 3-[4-(4-[3-Cyano-4-methoxypyrazolo[1,5-a]pyridin-6-yl]-5-methylpyrazol-1-yl)piperidin-1-yl]azetidine-1-carbonitrile]",< 50 nM
20,"Cc1c(-c2cc(OC(C)c3ccccc3-c3ccon3)n3c(C#N)cnc3c2)nnn1C1CCN(C#N)CC1 (single isomer, unassigned) [Example 142, 7-[1-(1-Cyano-4-piperidyl)-5-methyl-triazol-4-yl]-5-[1-(2-isoxazol-3-ylphenyl)ethoxy] imidazo [1,2-a]pyridine-3-carbonitrile]",< 100 nM
